Test results published in patent publication US6358885B1, “Substituted phenylheterocyclic herbicides” (Mississippi State University, priority 1992, dated 2002).

Experiments:
wild oat [1] = test: Test B preemergence/postemergence greenhouse plant response rating 0 to 10; assay type: in vivo, Avena fatua; conditions: 0 to 10 scale
Summary of the method: (§1)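 Both application timings were run together: seeds got compound preemergence, and established seedlings (two to eighteen cm) got it postemergence. Non-phytotoxic solvent carried the chemical. Ratings are visual, versus controls, at twelve to sixteen days.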

bedstraw = test: as above; assay type: in vivo, Galium aparine; conditions: 0 to 10 scale
Summary of the method: as §1

downy brome = test: Test C preemergence/postemergence greenhouse plant response rating 0 to 100; assay type: in vivo, Bromus tectorum; conditions: POSTEMERGENCE; for Plant response rating Downy Brome: 0 to 100 scale
Summary of the method: (§2)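 Compounds in non-phytotoxic solvent applied preemergence to sandy loam one day after planting, postemergence at the 1–4 leaf stage, or to ~2.5 cm floodwater over silt loam.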

ryegrass = test: as above; assay type: in vivo, Lolium multiflorum; conditions: POSTEMERGENCE; for Plant response rating Ryegrass: 0 to 100 scale
Summary of the method: as §2

wheat [2] = test: as above; assay type: in vivo, Triticum aestivum; conditions: POSTEMERGENCE; for Plant response rating, Wheat: 0 to 100 scale
Summary of the method: as §2

wheat [3] = test: Test B preemergence/postemergence greenhouse plant response rating 0 to 10; assay type: in vivo, Triticum aestivum; conditions: 0 to 10 scale
Summary of the method: as §1

sorghum [4] = test: Test C preemergence/postemergence greenhouse plant response rating 0 to 100; assay type: in vivo, Sorghum bicolor; conditions: POSTEMERGENCE; for Plant response rating, Sorghum: 0 to 100 scale
Summary of the method: as §2

rape = test: as above; assay type: in vivo, Brassica napus; conditions: POSTEMERGENCE; for Plant response rating, Rape: 0 to 100 scale
Summary of the method: as §2

barley = test: Test B preemergence/postemergence greenhouse plant response rating 0 to 10; assay type: in vivo, Hordeum vulgare; conditions: 0 to 10 scale
Summary of the method: as §1

wild buckwheat = test: Test C preemergence/postemergence greenhouse plant response rating 0 to 100; assay type: in vivo, Polygonum convolvulus; conditions: POSTEMERGENCE; for Plant response rating, Wild buckwheat: 0 to 100 scale
Summary of the method: as §2

sugar beet = test: Test B preemergence/postemergence greenhouse plant response rating 0 to 10; assay type: in vivo, Beta vulgaris; conditions: 0 to 10 scale
Summary of the method: as §1

sorghum [5] = test: as above; assay type: in vivo, Sorghum bicolor; conditions: 0 to 10 scale
Summary of the method: as §1

cotton = test: as above; assay type: in vivo, Gossypium hirsutum; conditions: 0 to 10 scale
Summary of the method: as §1

lambsquarters = test: as above; assay type: in vivo, Chenopodium album; conditions: 0 to 10 scale
Summary of the method: as §1

crabgrass = test: Test C preemergence/postemergence greenhouse plant response rating 0 to 100; assay type: in vivo, Digitaria sanguinalis; conditions: POSTEMERGENCE; for Plant response rating, Crabgrass: 0 to 100 scale
Summary of the method: as §2

barnyardgrass = test: Test C flood test plant response rating 0 to 100; assay type: in vivo, Echinochloa crus-galli; conditions: for Plant response rating Barnyardgrass 2: flood test species listed under POSTEMERGENCE, 0 to 100 scale
Summary of the method: as §2

blackgrass = test: Test B preemergence/postemergence greenhouse plant response rating 0 to 10; assay type: in vivo, Alopecurus myosuroides; conditions: 0 to 10 scale
Summary of the method: as §1

wild oat [6] = test: Test C preemergence/postemergence greenhouse plant response rating 0 to 100; assay type: in vivo, Avena fatua; conditions: POSTEMERGENCE; for Plant response rating, Wild oat: 0 to 100 scale
Summary of the method: as §2

CC(C)OC(=O)c1cc(-c2nn3c(c2Cl)CCCC3)c(F)cc1Cl [Compound 44]
Plant response rating, Wild oat (wild oat [1]; POSTEMERGENCE, Rate 50 g/ha): 5
Plant response rating, Wild oat (wild oat [1]; PREEMERGENCE, Rate 50 g/ha): 4
Plant response rating, Wild oat (wild oat [1]; Rate 200 g/ha, POSTEMERGENCE): 8
Plant response rating, Bedstraw (bedstraw; POSTEMERGENCE, Rate 50 g/ha): 9
Plant response rating, Bedstraw (bedstraw; POSTEMERGENCE, Rate 200 g/ha): 9
Plant response rating, Bedstraw (bedstraw; PREEMERGENCE, Rate 50 g/ha): 8
Plant response rating, Bedstraw (bedstraw; Rate 200 g/ha, PREEMERGENCE): 10
Plant response rating Downy Brome (downy brome; 62 g/ha): 50
Plant response rating Downy Brome (downy brome; 250 g/ha): 90
Plant response rating (0 to 100), Downy Brome (downy brome; Rate 4 g/ha): 20
Plant response rating (0 to 100), Downy Brome (downy brome; Rate 16 g/ha): 40
Plant response rating Ryegrass (ryegrass; 62 g/ha): 50
Plant response rating Ryegrass (ryegrass; 250 g/ha): 90
Plant response rating (0 to 100), Ryegrass (ryegrass; Rate 4 g/ha): 20
Plant response rating (0 to 100), Ryegrass (ryegrass; Rate 16 g/ha): 30
Plant response rating, Wheat (wheat [2]; 62 g/ha): 50
Plant response rating, Wheat (wheat [2]; 250 g/ha): 80
Plant response rating (0 to 100), Wheat (wheat [2]; Rate 4 g/ha): 20
Plant response rating (0 to 100), Wheat (wheat [2]; Rate 16 g/ha): 30
Plant response rating, Wheat (wheat [3]; POSTEMERGENCE, Rate 50 g/ha): 6
Plant response rating, Wheat (wheat [3]; PREEMERGENCE, Rate 50 g/ha): 3
Plant response rating, Wheat (wheat [3]; Rate 200 g/ha, POSTEMERGENCE): 6
Plant response rating, Wheat (wheat [3]; Rate 200 g/ha, PREEMERGENCE): 3
Plant response rating, Sorghum (sorghum [4]; 62 g/ha): 60
Plant response rating, Sorghum (sorghum [4]; 250 g/ha): 100
Plant response rating (0 to 100), Sorghum (sorghum [4]; Rate 4 g/ha): 30
Plant response rating (0 to 100), Sorghum (sorghum [4]; Rate 16 g/ha): 40
Plant response rating, Rape (rape; 62 g/ha): 100
Plant response rating, Rape (rape; 250 g/ha): 100
Plant response rating (0 to 100), Rape (rape; Rate 4 g/ha): 40
Plant response rating (0 to 100), Rape (rape; Rate 16 g/ha): 70
Plant response rating, Barley (barley; POSTEMERGENCE, Rate 50 g/ha): 4
Plant response rating, Barley (barley; POSTEMERGENCE, Rate 200 g/ha): 6
Plant response rating, Barley (barley; PREEMERGENCE, Rate 50 g/ha): 1
Plant response rating, Barley (barley; Rate 200 g/ha, PREEMERGENCE): 2
Plant response rating, Wild buckwheat (wild buckwheat; 62 g/ha): 100
Plant response rating, Wild buckwheat (wild buckwheat; 250 g/ha): 100
Plant response rating (0 to 100), Wild buckwheat (wild buckwheat; Rate 4 g/ha): 70
Plant response rating (0 to 100), Wild buckwheat (wild buckwheat; Rate 16 g/ha): 90
Plant response rating, Sugar beet (sugar beet; POSTEMERGENCE, Rate 50 g/ha): 10
Plant response rating, Sugar beet (sugar beet; PREEMERGENCE, Rate 50 g/ha): 10
Plant response rating, Sugar beet (sugar beet; Rate 200 g/ha, POSTEMERGENCE): 10
Plant response rating, Sugar beet (sugar beet; Rate 200 g/ha, PREEMERGENCE): 10
Plant response rating, Sorghum (sorghum [5]; POSTEMERGENCE, Rate 50 g/ha): 4
Plant response rating, Sorghum (sorghum [5]; PREEMERGENCE, Rate 50 g/ha): 1
Plant response rating, Sorghum (sorghum [5]; Rate 200 g/ha, POSTEMERGENCE): 5
Plant response rating, Sorghum (sorghum [5]; Rate 200 g/ha, PREEMERGENCE): 2
Plant response rating, Cotton (cotton; POSTEMERGENCE, Rate 50 g/ha): 10
Plant response rating, Cotton (cotton; POSTEMERGENCE, Rate 200 g/ha): 10
Plant response rating, Cotton (cotton; PREEMERGENCE, Rate 50 g/ha): 1
Plant response rating, Cotton (cotton; Rate 200 g/ha, PREEMERGENCE): 8
Plant response rating, Lambsquarter (lambsquarters; POSTEMERGENCE, Rate 50 g/ha): 10
Plant response rating, Lambsquarter (lambsquarters; PREEMERGENCE, Rate 50 g/ha): 10
Plant response rating, Lambsquarter (lambsquarters; Rate 200 g/ha, POSTEMERGENCE): 10
Plant response rating, Lambsquarter (lambsquarters; Rate 200 g/ha, PREEMERGENCE): 10
Plant response rating, Crabgrass (crabgrass; 62 g/ha): 40
Plant response rating, Crabgrass (crabgrass; 250 g/ha): 50
Plant response rating (0 to 100), Crabgrass (crabgrass; Rate 4 g/ha): 20
Plant response rating (0 to 100), Crabgrass (crabgrass; Rate 16 g/ha): 30
Plant response rating (0 to 100), Barnyardgrass 2 (barnyardgrass; POSTEMERGENCE section, flood test, Rate 4 g/ha): 65
Plant response rating (0 to 100), Barnyardgrass 2 (barnyardgrass; Rate 16 g/ha, under POSTEMERGENCE head (flood test species)): 100
Plant response rating Barnyardgrass 2 (barnyardgrass; 62 g/ha): 100
Plant response rating Barnyardgrass 2 (barnyardgrass; 250 g/ha): 100
Plant response rating, Blackgrass (blackgrass; POSTEMERGENCE, Rate 50 g/ha): 8
Plant response rating, Blackgrass (blackgrass; POSTEMERGENCE, Rate 200 g/ha): 9
Plant response rating, Blackgrass (blackgrass; PREEMERGENCE, Rate 50 g/ha): 4
Plant response rating, Blackgrass (blackgrass; Rate 200 g/ha, PREEMERGENCE): 6
Plant response rating, Wild oat (wild oat [6]; 62 g/ha): 50
Plant response rating, Wild oat (wild oat [6]; 250 g/ha): 60
Plant response rating (0 to 100), Wild oat (wild oat [6]; Rate 4 g/ha): 20
Plant response rating (0 to 100), Wild oat (wild oat [6]; Rate 16 g/ha): 30
